This passage reports inhibition results from ChEMBL document CHEMBL4418495, “Entpd5 inhibitors” (2012).

The target of test [1] is T1, Nucleoside diphosphate phosphatase ENTPD5 (Homo sapiens) (UniProt O75356).
T1 sequence (whole entry): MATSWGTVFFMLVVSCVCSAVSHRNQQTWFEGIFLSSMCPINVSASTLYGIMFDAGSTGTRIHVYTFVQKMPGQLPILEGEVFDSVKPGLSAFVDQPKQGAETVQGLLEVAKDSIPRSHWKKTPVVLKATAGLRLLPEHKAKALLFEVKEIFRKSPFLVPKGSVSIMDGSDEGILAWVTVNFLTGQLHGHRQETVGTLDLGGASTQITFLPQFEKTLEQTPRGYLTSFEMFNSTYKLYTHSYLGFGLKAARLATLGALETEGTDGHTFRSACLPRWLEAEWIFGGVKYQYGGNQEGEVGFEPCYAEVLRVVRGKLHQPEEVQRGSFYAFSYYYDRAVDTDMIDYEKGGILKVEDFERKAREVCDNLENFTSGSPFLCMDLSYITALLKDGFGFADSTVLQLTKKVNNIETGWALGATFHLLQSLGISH
Briefly: Inhibition of human recombinant ENTPD5 expressed in insect cells assessed as reduction in reduction in UDP hydrolysis by measuring inorganic phosphate release incubated for 1 hr by malachite green based assay.

Test [2] addresses T1, Nucleoside diphosphate phosphatase ENTPD5 (Homo sapiens). Description: Inhibition of human recombinant ENTPD5 expressed in insect cells assessed as reduction in UDP hydrolysis at 1 uM incubated for 1 hr in presence of UMP, GTP and ATP by Escherichia coli UMP kinase pyrH catalyzed UMP phosphorylation coupled luciferase assay.
The target of test [3] is T2, Uridylate kinase (Escherichia coli (strain K12)) (UniProt P0A7E9).
T2 sequence (whole entry): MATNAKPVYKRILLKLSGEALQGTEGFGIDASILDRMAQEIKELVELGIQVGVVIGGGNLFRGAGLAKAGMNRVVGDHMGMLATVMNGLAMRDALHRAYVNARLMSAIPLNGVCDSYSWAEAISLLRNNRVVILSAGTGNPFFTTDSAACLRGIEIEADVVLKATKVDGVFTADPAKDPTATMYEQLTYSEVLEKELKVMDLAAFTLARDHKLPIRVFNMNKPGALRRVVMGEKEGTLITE
Briefly: Inhibition of recombinant Escherichia coli UMP kinase pyrH catalyzed UMP phosphorylation in presence of GTP and ATP incubated for 1 hr by luminescence based assay.

The target of test [4] is T1, Nucleoside diphosphate phosphatase ENTPD5 (Homo sapiens). Description: Inhibition of human recombinant ENTPD5 expressed in insect cells assessed as reduction in UDP hydrolysis up to 10 uM incubated for 1 hr in presence of UMP, GTP and ATP by Escherichia coli UMP kinase pyrH catalyzed UMP phosphorylation coupled luciferase assay.

Calls of active or inactive are those of the source. How the calls were made is not given here.

On to `Cc1cccc(Oc2ccc(N3C(=O)C=CC3=O)cc2)c1C`, for which the inhibition entry in test [1] and in test [2] was “Active” in each case. In addition, the inhibition entry in test [3] is “inactive”. Further, in test [4], the inhibition result is “Dose-dependent effect”.

`CC(=O)c1ccc(-c2ccc(/C=C3\C(=O)NC(=S)N(c4ccc(Br)cc4)C3=O)o2)cc1`: the inhibition entry in test [1] and in test [2] was “Active” each time. The inhibition result in test [3] is “inactive”. Moreover, in test [4], the inhibition result was “Dose-dependent effect”.

As for `O=C(Cn1cc(/C=C2\C(=O)NC(=O)N(Cc3ccccc3)C2=O)c2ccccc21)NCc1ccccc1`, the inhibition result in test [1] and in test [2] was “Active” each time. Moreover, the inhibition entry in test [3] was “inactive”. In test [4], the inhibition result is “Dose-dependent effect”.

For `O=C(CSc1nc2c([nH]c3ccccc32)c(=O)n1-c1ccccc1)N1CCN(c2ccccc2)CC1`, the inhibition result in test [1] and in test [2] was “Active” each time. In test [3], the inhibition result is “inactive”. In addition, the inhibition entry in test [4] is “Dose-dependent effect”.

With `CN1C(=O)C(=Cc2ccc(Sc3ccccc3)o2)C(=O)N(C)C1=S`, the inhibition entry in test [1] and in test [2] was “Active” throughout. Further, in test [3], the inhibition entry is “inactive”. The inhibition result in test [4] is “Dose-dependent effect”.

As to `O=C1N=C2C=CC(I)=CC2C1NNc1cccc2cccnc12` (centres undefined), the inhibition result in test [1] and in test [2] was “Active” throughout. Further, the inhibition entry in test [3] is “inactive”. In addition, the inhibition entry in test [4] is “Dose-dependent effect”.

As for `O=C(O)c1ccc(NC(=O)c2ccc3c(c2)C(=O)N(c2ccc(/N=N/c4ccccc4)cc2)C3=O)cc1`, the inhibition result in test [1] and in test [2] was “Active” in each case. The inhibition entry in test [3] was “inactive”. The inhibition entry in test [4] was “Dose-dependent effect”.

On to `C=CCN(CC(=O)N(Cc1ccc2c(c1)OCO2)Cc1coc2ccc(Cl)cc2c1=O)C(=O)c1cccc2ccccc12`, for which the inhibition entry in test [1] and in test [2] was “Active” in each case. For the same compound, the inhibition entry in test [3] is “inactive”. For the same compound, the inhibition entry in test [4] was “Dose-dependent effect”.

Turning to `O=C(NC(=S)Nc1ccc(-c2nc3ncccc3o2)cc1)c1ccc(Cl)cc1Cl`, the inhibition result in test [1] and in test [2] was “Active” in each case. Further, the inhibition entry in test [3] was “inactive”. For the same compound, the inhibition entry in test [4] was “Dose-dependent effect”.

Take `O=C(Nc1ccc(Oc2ccc(NC(=O)c3cccs3)cc2)cc1)c1cccs1`: the inhibition result in test [1] and in test [2] was “Active” each time. Further, the inhibition entry in test [3] is “inactive”. For the same compound, the inhibition entry in test [4] is “Dose-dependent effect”.

On to `O=C(Nc1nonc1NC(=O)c1sc2cc(Cl)ccc2c1Cl)c1sc2cc(Cl)ccc2c1Cl`, for which the inhibition entry in test [1] and in test [2] was “Active” throughout. For the same compound, in test [3], the inhibition entry is “inactive”. Further, the inhibition entry in test [4] was “Dose-dependent effect”.

With `CCCCCCCCCCCCCCCC[N+](C)(C)CCN(Cc1ccc(OC)cc1)c1ncccn1`, the inhibition result in test [1] and in test [2] was “Active” each time. Also, the inhibition result in test [3] was “inactive”. Besides, the inhibition result in test [4] was “Dose-dependent effect”.

`CN1C(=O)c2ccc(NC(=S)NC(=O)CC34CC5CC(CC(C5)C3)C4)cc2C1=O`: the inhibition entry in test [1] and in test [2] was “Active” throughout. Also, in test [3], the inhibition entry was “inactive”. Also, the inhibition entry in test [4] was “Dose-dependent effect”.

For `CCc1ccc(NS(=O)(=O)c2ccc(N3C(=O)c4cc([N+](=O)[O-])cc5cc([N+](=O)[O-])cc(c45)C3=O)cc2)cc1`, the inhibition result in test [1] and in test [2] was “Active” each time. The inhibition entry in test [3] was “inactive”. The inhibition result in test [4] was “Dose-dependent effect”.

Turning to `Cc1ccnc(NC(c2ccc3cccnc3c2O)c2sccc2C)c1` (centres undefined), the inhibition result in test [1] and in test [2] was “Active” each time. The inhibition result in test [3] is “inactive”. For the same compound, the inhibition result in test [4] was “Dose-dependent effect”.

For `O=S(=O)(Nc1cc(-c2c(O)ccc3ccccc23)c(O)c2ccccc12)c1ccc(F)cc1`, the inhibition result in test [1] and in test [2] was “Active” throughout. For the same compound, the inhibition result in test [3] was “inactive”. In addition, the inhibition result in test [4] was “Dose-dependent effect”.

`Cc1ccc(C)c(-c2nn(-c3ccccc3)cc2C=C2C(=O)NC(=O)NC2=O)c1`: the inhibition result in test [1] and in test [2] was “Active” in each case. In addition, the inhibition result in test [3] was “inactive”. The inhibition result in test [4] was “Dose-dependent effect”.

`O=c1cc(-c2ccco2)nc(-c2ccco2)o1`: the inhibition result in test [1] and in test [2] was “Active” each time. Moreover, in test [3], the inhibition result was “inactive”. Besides, in test [4], the inhibition entry is “Dose-dependent effect”.

Turning to `O=C1NC(=S)N(c2ccc(Br)cc2)C(=O)/C1=C/c1ccc(-c2ccc(F)cc2)o1`, the inhibition entry in test [1] and in test [2] was “Active” in each case. The inhibition result in test [3] is “inactive”. Moreover, in test [4], the inhibition result was “Dose-dependent effect”.

Consider `O=C1NC(=S)N(c2ccccc2F)C(=O)/C1=C/c1cccn1-c1ccc(Cl)cc1`, for which the inhibition result in test [1] and in test [2] was “Active” throughout. In addition, the inhibition entry in test [3] was “inactive”. Also, the inhibition result in test [4] was “Dose-dependent effect”.

Take `O=C(c1ccc(C(F)(F)F)cc1)N(CCc1csc2nc(-c3ccc4ccccc4c3)cn12)Cc1ccco1`: the inhibition result in test [1] and in test [2] was “Active” throughout. The inhibition result in test [3] is “inactive”. Also, the inhibition entry in test [4] is “Dose-dependent effect”.

With `CC1=NN(c2ccc(S(N)(=O)=O)cc2)C(=O)/C1=C/c1ccc(-c2ccc(C)cc2[N+](=O)[O-])o1`, the inhibition entry in test [1] and in test [2] was “Active” each time. For the same compound, the inhibition result in test [3] is “inactive”. The inhibition result in test [4] is “Dose-dependent effect”.

As to `N#CC1=C(N)C(C#N)(C#N)C(c2ccc(OCc3ccc(Cl)cc3)c([N+](=O)[O-])c2)C2CCCC=C12` (centres undefined), the inhibition result in test [1] and in test [2] was “Active” throughout. In addition, in test [3], the inhibition result is “inactive”. In test [4], the inhibition result was “Dose-dependent effect”.

For `CCN1C(=O)/C(=C/c2cccn2C)C(=O)NC1=S`, the inhibition result in test [1] and in test [2] was “Active” each time. Moreover, in test [3], the inhibition result is “inactive”. For the same compound, the inhibition entry in test [4] was “Dose-dependent effect”.

With `CC(C)(C)C(=O)Nc1ccc(C(=O)Nc2ccc(-c3nc4ncccc4o3)cc2)cc1`, the inhibition entry in test [1] and in test [2] was “Active” throughout. In addition, the inhibition result in test [3] is “inactive”. Further, the inhibition result in test [4] was “Dose-dependent effect”.

As for `O=C(O)C1=CC(C(c2ccc(O)c(C(=O)O)c2)c2ccc(O)c(C(=O)O)c2)C=CC1=O` (centres undefined), the inhibition entry in test [1] and in test [2] was “Active” in each case. The inhibition result in test [3] was “inactive”. In test [4], the inhibition entry was “Dose-dependent effect”.

In the case of `O=C(/C=C/c1ccco1)/C=C/c1ccc(-c2ccc(Br)cc2)o1`, the inhibition result in test [1] and in test [2] was “Active” throughout. The inhibition result in test [3] is “inactive”. In addition, in test [4], the inhibition entry is “Dose-dependent effect”.

For the compound `O=C1/C(=C/c2ccc(-c3cccc(C(F)(F)F)c3)o2)SC(=S)N1Cc1ccco1`, the inhibition entry in test [1] and in test [2] was “Active” in each case. The inhibition entry in test [3] was “inactive”. Also, the inhibition result in test [4] is “Dose-dependent effect”.

As for `Cc1ccc(N2C(=O)/C(=C/c3cc(Br)cc(I)c3O)C(=O)NC2=S)cc1C`, the inhibition entry in test [1] and in test [2] was “Active” in each case. For the same compound, in test [3], the inhibition entry is “inactive”. Besides, the inhibition result in test [4] was “Dose-dependent effect”.

For the compound `COC(=O)Cn1cc(/C=C2\C(=O)NC(=S)N(c3ccc(Cl)cc3)C2=O)c2ccccc21`, the inhibition result in test [1] and in test [2] was “Active” in each case. In addition, in test [3], the inhibition entry was “inactive”. For the same compound, the inhibition entry in test [4] was “Dose-dependent effect”.

For `O=C1N=C(Nc2cccc(Cl)c2Cl)S/C1=C/c1ccc(OCc2ccc(C(=O)O)cc2)c(Br)c1`, the inhibition result in test [1] and in test [2] was “Active” throughout. Moreover, the inhibition result in test [3] was “inactive”. In addition, the inhibition entry in test [4] was “Dose-dependent effect”.
